What was measured:
[1] = test system: patients with major depressive disorder; conditions: cited from earlier work
rats = assay: Hot plate test of analgesia; assay type: in vivo, rat
Source text: The hot plate test assesses antinociception in rats and mice (see, e.g., Basile, A. et al., “Characterization of the Antinociceptive Actions of Bicifadine in Models of Acute, Persistent, and Chronic Pain,” The Journal of Pharmacology and Experimental Therapeutics, 2007, 321 (3), 1208-1225).

female rats = conditions: doses of 5 and 10 mg/kg; cited from earlier work
5-HT2c receptor = biological target: T1, 5-HT2c receptor (Homo sapiens, UniProt P28335); assay: Functional activity at the 5-HT2c receptor; assay type: biochemical
T1 sequence (P28335 33-458): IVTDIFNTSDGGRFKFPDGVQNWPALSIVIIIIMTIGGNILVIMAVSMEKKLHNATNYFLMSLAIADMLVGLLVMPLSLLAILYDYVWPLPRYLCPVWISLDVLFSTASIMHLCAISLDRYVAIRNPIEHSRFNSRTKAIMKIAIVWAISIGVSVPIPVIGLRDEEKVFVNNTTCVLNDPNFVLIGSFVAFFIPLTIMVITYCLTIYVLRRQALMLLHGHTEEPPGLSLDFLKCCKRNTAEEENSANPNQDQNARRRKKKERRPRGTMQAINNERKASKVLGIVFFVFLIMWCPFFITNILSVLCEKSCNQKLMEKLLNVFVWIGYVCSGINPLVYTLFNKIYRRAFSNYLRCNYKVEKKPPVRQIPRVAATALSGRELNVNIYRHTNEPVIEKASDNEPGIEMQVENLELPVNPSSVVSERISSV
Source text: It has been proposed that serotonin exerts control of dopamine release in the ventral tegmental area via the 5-HT2c receptor. […] Opioid analgesic effects are manifested via the periaqueductal gray whereas reduction in self-administration results from a reduction in dopamine neurotransmission via 5-HT2c partial agonism in the ventral tegmental area.

mouse = conditions: second phase (15-30 minutes); cited from earlier work

| Compound | antidepressant activity [1] | antinociception in hot plate test, given alone (rats; amitifadine alone) | effect on the opioid's antinociception in hot plate test, in combination (rats; amitifadine in combination with an opioid) | food motivated responding (female rats) | activity at the 5-HT2c receptor (5-HT2c receptor) | effectiveness compared with morphine in formalin paw lick test (mouse) |
| --- | --- | --- | --- | --- | --- | --- |
| Clc1ccc([C@]23CNC[C@H]2C3)cc1Cl [amitifadine, (1R,5S)-1-(3,4-dichlorophenyl)-3-azabicyclo[3.1.0]hexane] | significant antidepressant activity | antinociceptive | does not attenuate the opioid's antinociception, instead extending the opioid's antinociception | does not significantly affect | partial agonist |  |
| Cl.Clc1ccc([C@]23CNC[C@H]2C3)cc1Cl [(1R,5S)-1-(3,4-dichlorophenyl)-3-azabicyclo[3.1.0]hexane hydrochloride] |  |  |  |  |  | as effective as morphine |
